Source: patent publication US20240252474A1, “METHODS AND COMPOSITIONS COMPRISING A CARDIO-TOLERATED HDAC INHIBITOR” (HUYABIO International, LLC, priority 2023, published 2024)
Several values for one entry are separate records, joined by “and”; a condition that tells them apart may be missing. Equal entries are not always repeated. Where two headings read alike, the source gives them in different places.

Legend:
[1] = tested on: advanced solid tumors, including melanoma, RCC (renal cell carcinoma), and NSCLC (non-small cell lung cancer); assay: Tumor response by RECIST v.1.1; type: in vivo, human
From the text: The decision to escalate the dose was based on the conventional 3+3 design and observed incidences of dose-limiting toxicities (DLTs). Each treatment cycle was defined as 28 days. To be evaluable for DLT, a subject must have developed DLT, or received the minimum 75% of the planned HBI-8000 dose within the 28-day DLT evaluation period in the absence of treatment delays due to toxicities. Subjects experiencing DLT within the first two weeks after having received 100% of assigned dose of HBI-8000 are also evaluable for DLT. Unacceptable toxicities were defined as grade 3 or higher non-hematologic and hematologic toxicities with clinical complications. Unacceptable toxicities observed over the first 28 days following HBI-8000 administration were considered as DLTs. The RP2D was identified as the highest dose at which the DLT incidence was less than 33.3%. HBI-8000 administration continued until disease progression or unacceptable toxicity was observed. The efficacy of the combination was further evaluated in an expanded cohort of selected patient populations at RP2D based on an objective response rate according to Response Evaluation Criteria in Solid Tumors (RECIST) version 1.1 criteria, progression-free survival, and duration of responses.
Tumor assessments were performed every 8 weeks until treatment discontinuation, then every 12 (±1) weeks in subjects in whom disease progression has not yet been observed, and followed the guidelines specified by RECIST v.1.1 and immune-related Response Evaluation Criteria In Solid Tumors (iRECIST).

[2] = Non-compartmental PK analysis of HBI-8000 plasma concentrations; type: in vivo, human; conditions: for AUC0-7/D / AUC0-24/D / Cmax/D / CPre/D: dose-normalized; for AUC from 0 to 7 h post-dose: read-out: AUC0-7; for AUC(0-t): read-out: AUC0-24
From the text: Statistical analyses of safety, tolerability, and anti-tumor activity were primarily descriptive in nature. Toxicities were tabulated by type and grade. The safety population included all patients who received ≥1 dose of HBI-8000 and nivolumab. Continuous variables were summarized using descriptive statistics and categorical variables were summarized with number and percentage at each category. Pharmacokinetic parameters were derived using noncompartmental methods with Phoenix® WinNonlin® Version 6.4 (Certara, L. P., Princeton, NJ, USA).
Non-compartmental PK analysis for HBI-8000 was conducted in Phase 1b using serial plasma concentration data collected up to 24 hours post-dose for the first (Cycle 1 Day 1; C1D1) dose and up to 7 hours post-dose for the ninth (C2D1) dose of HBI-8000. In conjunction with PK, Holter monitors were used to record 12-lead continuous digital ECGs (under controlled conditions to minimize digital noise) on a baseline day (within 1-7 days prior to C1D1) and on C1D1 (Phase 1b only). Triplicate 10-second ECGs were extracted from the Holter flashcard at matched time-points on the baseline day and on C1D1 up to 4 hours post-dose and the PR, QRS, RR, and QT intervals were analyzed by a Central ECG Laboratory. Meal-times (breakfast) were standardized across both days and occurred after or ≥1 hour before the scheduled extraction times for triplicate ECGs. The measured QT data were corrected for heart rate using Fridericia (QTcF).

[3] = HBI-8000 + nivolumab, 3 NSCLC patients
[4] = HBI-8000 + nivolumab, 5 melanoma patients
[5] = HBI-8000 + nivolumab, 7 RCC patients
[6] = 20 mg, n = 2, individual values
[7] = C1D1, 20 mg, n = 3, geometric mean
[8] = C1D1, 30 mg, n = 7, geometric mean
[9] = C1D1, 40 mg, n = 7, geometric mean
[10] = C2D1, 20 mg, n = 2, individual values
[11] = C2D1, 30 mg, n = 3, geometric mean
[12] = C2D1, 40 mg, n = 4, geometric mean
[13] = human, plasma, oral, 20 mg, C1D1, 20 mg, n = 3, geometric mean
[14] = human, plasma, oral, 30 mg, C1D1, 30 mg, n = 7, geometric mean

Compound: Nc1cc(F)ccc1NC(=O)c1ccc(CNC(=O)/C=C/c2cccnc2)cc1 [HBI-8000, N-(2-amino-4-fluorophenyl)-4-[[[(2E)-1-oxo-3-(3-pyridinyl)-2-propen-1-yl]amino]methyl]benzamide]
- NSCLC, PR [1, 3]: 1 patients
- NSCLC, stable disease [1, 3]: 2 patients
- Melanoma, complete response (CR) [1, 4]: 1 patients
- Melanoma, partial responses (PR) [1, 4]: 4 patients
- Melanoma patients who responded ([1]; HBI-8000 + nivolumab, 5 melanoma patients, RECIST v.1.1): 5 patients
- RCC, PR [1, 5]: 2 patients
- RCC, progressive disease [1, 5]: 4 patients
- RCC, stable disease [1, 5]: 1 patients
- earliest objective response, time of treatment ([1]; HBI-8000 + nivolumab, first scheduled tumor assessment, end of Cycle 2): 8 weeks
- longest time to response after treatment initiation ([1]; one patient, nivolumab and HBI-8000 ceased after 16 months): 32 months
- median plasma concentration at 4 hours, lower than Cmax by ([2]; 20 mg dose): 17%
- AUC0-7 Ratio (C2D1/C1D1) [2, 6]: 0.69 and 1.99
- Cmax Ratio (C2D1/C1D1) [2, 6]: 1.06 and 1.80
- median plasma concentration at 4 hours, lower than Cmax by ([2]; 30 mg dose): 19%
- AUC0-7 Ratio (C2D1/C1D1) ([2]; 30 mg, n = 3, geometric mean): 1.37
- Cmax Ratio (C2D1/C1D1) ([2]; 30 mg, n = 3, geometric mean): 1.08
- AUC0-7 Ratio (C2D1/C1D1) ([2]; 40 mg, n = 3, geometric mean): 1.36
- Cmax Ratio (C2D1/C1D1) ([2]; 40 mg, n = 4, geometric mean): 1.18
- median plasma concentration at 4 hours, lower than Cmax by ([2]; 40-mg dose): 15%
- Accumulation, first versus ninth dose ([2]; BIW dosing, C1D1 vs C2D1): No significant accumulation
- Cmax ([2]; C1D1, 20 mg oral, n = 3, geometric mean): 104.9 ng/mL
- AUC0-7/D [2, 7]: 19.2 ng·h/mL/mg
- AUC0-24/D [2, 7]: 79.5 ng·h/mL/mg
- Cmax/D [2, 7]: 5.24 ng/mL/mg
- Cmax ([2]; C1D1, 30 mg oral, n = 7, geometric mean): 117.6 ng/mL
- AUC0-7/D [2, 8]: 11.4 ng·h/mL/mg
- AUC0-24/D [2, 8]: 57.8 ng·h/mL/mg
- Cmax/D [2, 8]: 3.92 ng/mL/mg
- Cmax ([2]; C1D1, 40 mg oral, n = 7, geometric mean): 259.3 ng/mL
- AUC0-7/D ([2]; C1D1, 40 mg, n = 6, geometric mean): 24.3 ng·h/mL/mg
- AUC0-24/D [2, 9]: 92.2 ng·h/mL/mg
- Cmax/D [2, 9]: 6.49 ng/mL/mg
- Cmax ([2]; C2D1, 20 mg BIW, n = 2, individual values): 83.1 ng/mL and 182 ng/mL
- AUC0-7 [2, 10]: 250 ng·h/mL and 728 ng·h/mL
- CPre (pre-dose trough concentration) [2, 10]: 4.76 ng/mL and 4.79 ng/mL
- Tmax [2, 10]: 3.0 h
- AUC0-7/D [2, 10]: 12.5 ng·h/mL/mg and 36.4 ng·h/mL/mg
- CPre/D [2, 10]: 0.238 ng/mL/mg and 0.240 ng/mL/mg
- Cmax/D [2, 10]: 4.16 ng/mL/mg and 9.10 ng/mL/mg
- CPre (pre-dose trough concentration) [2, 11]: 16.1 ng/mL
- AUC0-7/D [2, 11]: 13.1 ng·h/mL/mg
- CPre/D [2, 11]: 0.536 ng/mL/mg
- Cmax/D [2, 11]: 3.76 ng/mL/mg
- CPre (pre-dose trough concentration) [2, 12]: 14.2 ng/mL
- AUC0-7/D [2, 12]: 23.2 ng·h/mL/mg
- CPre/D [2, 12]: 0.356 ng/mL/mg
- Cmax/D [2, 12]: 5.73 ng/mL/mg
- AUC from 0 to 7 h post-dose [2, 13]: 384 ng·h/mL
- AUC(0-t) [2, 13]: 1590 ng·h/mL
- Tmax ([2]; human, plasma, oral, 20 mg, C1D1, 20 mg, n = 3, median, read-out: tmax): 6.6 h
- AUC from 0 to 7 h post-dose [2, 14]: 342 ng·h/mL
- AUC(0-t) [2, 14]: 1730 ng·h/mL
- Tmax ([2]; human, plasma, oral, 30 mg, C1D1, 30 mg, n = 7, median, read-out: tmax): 6.5 h
- Cmax ([2]; human, plasma, oral, 30 mg, C2D1, 30 mg BIW, n = 3, geometric mean, read-out: Cmax): 113 ng/mL
- AUC from 0 to 7 h post-dose ([2]; human, plasma, oral, 30 mg, C2D1, 30 mg, n = 3, geometric mean): 392 ng·h/mL
- Tmax ([2]; human, plasma, oral, 30 mg, C2D1, 30 mg, n = 3, median, read-out: tmax): 6.7 h
- AUC from 0 to 7 h post-dose ([2]; human, plasma, oral, 40 mg, C1D1, 40 mg, n = 6, geometric mean): 973 ng·h/mL
- AUC(0-t) ([2]; human, plasma, oral, 40 mg, C1D1, 40 mg, n = 7, geometric mean): 3690 ng·h/mL
- Tmax ([2]; human, plasma, oral, 40 mg, C1D1, 40 mg, n = 7, median, read-out: tmax): 4.8 h
- Cmax ([2]; human, plasma, oral, 40 mg, C2D1, 40 mg BIW, n = 4, geometric mean, read-out: Cmax): 229 ng/mL
- AUC from 0 to 7 h post-dose ([2]; human, plasma, oral, 40 mg, C2D1, 40 mg, n = 4, geometric mean): 929 ng·h/mL
- Tmax ([2]; human, plasma, oral, 40 mg, C2D1, 40 mg, n = 4, median, read-out: tmax): 6.8 h
- Tmax ([2]; human, plasma, oral, 40 mg, range across 20, 30 and 40 mg BIW dose cohorts, post dose, read-out: median time to peak plasma concentration (tmax)): 5 to 7 h
- Cmax ([2]; human, plasma, po, 20 mg, C1D1, 20 mg oral, n = 3, geometric mean, read-out: Cmax): 105 ng/mL
- Cmax ([2]; human, plasma, po, 30 mg, C1D1, 30 mg oral, n = 7, geometric mean, read-out: Cmax): 118 ng/mL
- Cmax ([2]; human, plasma, po, 40 mg, C1D1, 40 mg oral, n = 7, geometric mean, read-out: Cmax): 259 ng/mL
